The values below come from ChEMBL document CHEMBL1201862, “PubChem BioAssay data set” (2004).

What all share (experiment): inhibition of tumour cell growth, NCI panel, 48 h
The subject of test [1] is LXFL 529.
Test [2] relates to SNB-78.
Test [3] relates to HOP-18.
The test system of test [4] is DMS-114.
Test [5] concerns M19-MEL.
Test [6] concerns RXF 631.
Test [7] deals with KM-20L2.
Test [8] deals with DMS-273.
Test [9] relates to XF498.

Each structure is given as a SMILES string.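 Results reflect a 48-hour exposure of cells in 96-well plates to compound at five concentrations. GI50 = concentration required for 50% inhibition of growth.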 Activity calls are given as the source filed them. Rule as the data show it: active = GI50 up to about 1.1 µM and inactive = higher. Non-standard residues stand in square brackets, D forms with d. Residues, ends and D or L forms follow the SMILES beside them. ξ: configuration not given here. *: point of attachment. NMeF = CN[C@@H](Cc1ccccc1)C(=O)O; NMeN = CN[C@@H](CC(N)=O)C(=O)O; NMeV = CN[C@H](C(=O)O)C(C)C; ξNMeV = CNC(C(=O)O)C(C)C; Boc = CC(C)(C)OC(=O)*; ξNMeA = CNC(C)C(=O)O; ξV = CC(C)C(N)C(=O)O Some results are limits rather than exact numbers.

`O=C(O)C1CCc2nnc(-c3ccccc3)n21` (stereo not drawn): the GI50 in [1], in [2], in test [3], in test [4], in [5] and in test [6] was > 100 µM (inactive) in each case. The GI50 in test [7] and in [8] was > 100 µM (inactive) in each case.
For `O=C1c2ccccc2C(=O)N1CCN(CCN1C(=O)c2ccccc2C1=O)Cc1ccccc1`, the GI50 in test [1], in test [2], in test [4], in test [5], in test [7] and in test [8] was > 100 µM (inactive) throughout. The GI50 in [9] is > 100 µM (inactive).
With `Cc1cccc(NC(=O)/C(=N\NC(C)(C)C)C2NC(=S)NC2=O)c1C` (stereo not drawn), the GI50 in test [1], in test [2], in [5], in test [6] and in [7] was > 100 µM (inactive) each time.
As to `C=C(/C=C/C=C(\CO)CCC=C(C)C)[C@H]1CCC2([C@H](CCCO)/C(=C(/C)C=O)CC[C@]2(C)O)[C@H]1O` (stereo partly drawn), the GI50 in test [1] was > 100 µM (inactive); in [2], > 100 µM (inactive); in test [3] it was 40.9 µM (inactive); in [4], > 100 µM (inactive); in test [5] it was > 100 µM (inactive); in test [7] it was > 100 µM (inactive). Also, the GI50 in test [8] and in test [9] was > 100 µM (inactive) throughout.
`CS(=O)(=O)CC1=Nc2nnc(CCCCCCCc3nnc4n3C(=O)C(CS(C)(=O)=O)=N4)n2C1=O`: the GI50 in test [1], in test [3], in test [4], in test [5], in test [7] and in test [9] was > 100 µM (inactive) throughout.
For the compound `COc1ccccc1-n1c(NN)nc2ccc(Br)cc2c1=O`, the GI50 in test [1] was 24.3 µM (inactive); in test [2] it was 47.6 µM (inactive); in test [3] it was 5.18 µM (inactive); in test [4], 33.6 µM (inactive); in test [5] it was 42.5 µM (inactive); in test [6] it was 45.3 µM (inactive). The GI50 in test [7] is 39.9 µM (inactive); in test [8] it was 35.1 µM (inactive); in test [9], 28.5 µM (inactive).
`C[C@]12CCC(=O)C=C1CC[C@@H]1C2CC[C@]2(C)c3nn(-c4ccccc4)nc3CC12` (stereo partly drawn): the GI50 in test [1], in test [2], in [4], in test [5], in [7] and in test [8] was > 100 µM (inactive) throughout. Moreover, in test [9], the GI50 was > 100 µM (inactive).
For the compound `Cc1cc2c(c3oc(C(O)(CO)C4CO4)cc(=O)c13)C(=O)c1c(O)cccc1C2=O` (stereo not drawn), the GI50 in test [1] was < 0.01 µM (active); in test [2], 0.031 µM (active); in test [3], < 0.01 µM (active); in [4] it was < 0.01 µM (active); in test [5], < 0.01 µM (active); in test [6], < 0.01 µM (active). The GI50 in test [7], in test [8] and in test [9] was < 0.01 µM (active) each time.
In the case of `COC1OC(CO)C(O)C(OC(C)=O)C1NC(=O)N(CCCl)N=O` (stereo not drawn), the GI50 in [1], in test [2], in test [3], in [4], in test [5] and in [6] was > 100 µM (inactive) in each case. For the same compound, the GI50 in [7], in [8] and in [9] was > 100 µM (inactive) each time.
With `N#CC1=C(Cl)NC(Cl)=C(C#N)C1c1c(Cl)cccc1Cl`, the GI50 was 30.8 µM (inactive) in test [1]; 92.7 µM (inactive) in test [2]; 30.1 µM (inactive) in test [3]; 14.2 µM (inactive) in [4]; 45.8 µM (inactive) in test [7]; 19.6 µM (inactive) in test [8]. Besides, the GI50 in test [9] was 13.9 µM (inactive).
With `O=S(=O)(Sc1ccc(Cl)cc1)c1ccc(Cl)cc1`, the GI50 in test [1] was 16 µM (inactive); in test [2] it was 24.2 µM (inactive); in [4], 15.1 µM (inactive); in [5] it was 17.9 µM (inactive); in test [7], 17.8 µM (inactive); in [8], 15.4 µM (inactive). In addition, the GI50 in test [9] was 20.2 µM (inactive).
For the compound `COc1ccc2ccccc2c1C1OC(=O)c2ccccc21` (stereo not drawn), the GI50 in [2] was > 100 µM (inactive); in test [3] it was > 100 µM (inactive); in test [4], 53.3 µM (inactive); in [5] it was > 100 µM (inactive); in test [6], > 100 µM (inactive); in test [7], > 100 µM (inactive). For the same compound, in [8], the GI50 is 86.9 µM (inactive).
As to `CC1=NN(C(=O)Cc2ccccc2)C(=O)/C1=C/c1c(O)ccc2ccccc12`, the GI50 was 30.3 µM (inactive) in test [3]; 45.9 µM (inactive) in test [4]; 33 µM (inactive) in [5]; 50.5 µM (inactive) in test [8]; 1.68 µM (inactive) in [9].
For `N/C=N/S(=O)(=O)c1ccc(NC(=O)COC(=O)c2cccc3c(=O)c4ccccc4[nH]c23)cc1` the same measures were > 100 µM (inactive), > 100 µM (inactive), > 100 µM (inactive), > 100 µM (inactive) and > 100 µM (inactive).
For `O=C1Nc2ccc([N+](=O)[O-])cc2/C1=N/Nc1ccc([N+](=O)[O-])cc1`, the GI50 is 12.4 µM (inactive) in test [1]; 19.9 µM (inactive) in test [4]; 16.1 µM (inactive) in [5]; 24.7 µM (inactive) in [6]; 17.8 µM (inactive) in test [7]; 10.7 µM (inactive) in [8]. The GI50 in test [9] is 16.7 µM (inactive).
As to `CCc1cccc(CC)c1NC(=O)C1=C(C)NC(C)=C(C(=O)Nc2c(CC)cccc2CC)C1c1ccc([N+](=O)[O-])cc1`, the GI50 is 16.8 µM (inactive) in test [1]; 15.4 µM (inactive) in [4]; 21.3 µM (inactive) in test [5]; 26.7 µM (inactive) in test [7]; 18.4 µM (inactive) in [9].
In the case of `Cc1cc(NC(=O)NC(=O)c2ccccc2[N+](=O)[O-])ccc1Oc1ncc(Cl)cn1`, the GI50 in [1] is 0.0773 µM (active); in [2] it was 0.0964 µM (active); in test [3], 23.4 µM (inactive); in [4], 0.0927 µM (active); in test [5] it was 0.316 µM (active); in test [7], 0.0906 µM (active). The GI50 in test [8] was 0.0501 µM (active); in test [9], 0.0671 µM (active).
With `CC1(C)CC23C(=O)N(c4ccccc4)C(Nc4ccccc4)=NC2=CC(C#N)=C(C#N)C3O1` (stereo not drawn), the GI50 in test [1] was > 100 µM (inactive); in test [2] it was > 100 µM (inactive); in test [4], 42.5 µM (inactive); in [5], 94.6 µM (inactive); in [6], > 100 µM (inactive); in test [7] it was > 100 µM (inactive). Besides, the GI50 in [9] is > 100 µM (inactive).
For the compound `Cc1ccccc1NC(=O)C(=O)CC(=O)c1c(C)[n+]([O-])c2ccccc2[n+]1[O-]`, the GI50 in test [1], in test [2], in test [3], in test [4], in test [5] and in test [7] was > 100 µM (inactive) throughout. For the same compound, the GI50 in test [8] is > 100 µM (inactive).
With `Nc1nc2c(-c3ccc([N+](=O)[O-])cc3)nnn2c2ccccc12`, the GI50 was > 100 µM (inactive) in [1]; 81.1 µM (inactive) in test [2]; > 100 µM (inactive) in test [3]; > 100 µM (inactive) in [5]; > 100 µM (inactive) in [8]; 78.5 µM (inactive) in test [9].
On to `CCCCOC(=O)C1C2CCC(O2)C1C(=O)OCCCC` (stereo not drawn), for which the GI50 was > 100 µM (inactive) in [2]; > 100 µM (inactive) in test [3]; > 39.4 µM (inactive) in test [4]; > 61.2 µM (inactive) in [5]; > 42.3 µM (inactive) in [7]; > 100 µM (inactive) in test [8]. Further, the GI50 in test [9] is > 100 µM (inactive).
Consider `CCOc1ccc(/N=C/c2ccc3ccccc3n2)cc1`, for which the GI50 in test [1], in test [2], in test [3], in test [5], in test [6] and in [7] was > 100 µM (inactive) in each case. Also, the GI50 in [8] and in test [9] was > 100 µM (inactive) in each case.
`COC(=O)c1[nH]c(=S)[nH]c(=O)c1-c1ccc(Cl)cc1`: the GI50 in test [1], in test [2], in test [4], in test [5], in test [6] and in test [7] was > 50 µM (inactive) each time. The GI50 in [8] and in [9] was > 50 µM (inactive) throughout.
As to `CCN1CC2(C)CC[C@@H](OC)C34[C@@H]2[C@H](OC(C)=O)C2(OCO[C@@]25C[C@H](OC)C2C[C@]3(O)[C@@H]5[C@H]2O)[C@H]14`, the GI50 in test [1], in test [2], in test [4], in test [5] and in [7] was > 100 µM (inactive) in each case.
As for `COC(=O)C(C)N(C)C(=O)[C@H](CC(N)=O)N(C)C(=O)[C@@H]1CCCN1C(=O)[C@H](C(C)C)N(C)C(=O)C(C(C)C)N(C)C(=O)[C@H](Cc1ccccc1)N(C)C(=O)C(NC(=O)OC(C)(C)C)C(C)C` (stereo partly drawn) (Boc-[ξV][NMeF][ξNMeV][NMeV]P[NMeN][ξNMeA]-OMe), the GI50 in test [1] was 3.13 µM (inactive); in test [2], 17.9 µM (inactive); in test [4], 4.65 µM (inactive); in test [7] it was 33 µM (inactive); in test [8], 15.1 µM (inactive); in [9] it was 15.4 µM (inactive).
